According to PMC9218685, “Legume Plant Peptides as Sources of Novel Antimicrobial Molecules Against Human Pathogens” (Frontiers in Molecular Biosciences, 2022):
≈ marks a conversion by molar mass, not a printed value. Entries after “also recorded” stand apart in the source; their conditions may differ. Ends that are not written are not given here. Peptide text beside a SMILES is read from it.

How the values were obtained:
[1] = system: Lambda DNA/HindIII marker; experiment: Gel retardation assay (DNA aggregation); type: binding; settings: 100 ng DNA, 5 or 10 µM peptide in water, 30 min at room temperature, 1% agarose gel
Description: Interactions of peptides with DNA was visualized with gel retardation assay ([Hsu et al., 2005]). 100 ng Lambda DNA/HindIII marker (ThermoFisher Scientific) was incubated with 0, 5 or 10 µM synthetic NCRs or NCR derivatives in water for 30 min at room temperature and then loaded into 1% agarose gel. Electrophoresis of DNA fragments separated the mobile HindIII-digested DNA fragments while the aggregated DNA remained in the loading wells.
FIGURE 6 Aggregation of DNA by NCR peptides. Lambda HindIII digested DNA was incubated without (0) or with NCR peptides at 5 or 10 μM concentration.

A. baumannii = experiment: Scanning electron microscopy of cell morphology; type: cell-based, Acinetobacter baumannii; settings: 30 min treatment, peptide 1.6 or 3.125 µM as in Figure 3 legend
Description: A. baumannii and C. albicans were grown and treated the same way as for the membrane permeability assay. Cells were then fixed with 2.5% (v/v) glutaraldehyde in phosphate buffered saline (PBS, pH 7.4). 5 μl of the above bacterial and yeast suspensions were spotted on a silicon disk coated with 0.01% Poly-L-Lysine. The filters were washed twice with PBS and gradually dehydrated with ethanol series (30, 50, 70, 80%, and three times 100% ethanol, each for minimum 30 min). The samples were dried with a critical point dryer (K850: Quorum Technologies Ltd.), followed by 12 nm gold coating and observed under a JEOL JSM-7100F/LV scanning electron microscope.
FIGURE 3 Viability, membrane permeability and morphology of A. baumannii cells after NCR treatment (A–L) SYTO9/PI staining observed with confocal microscope, (M–X) Cell morphology observed with SEM. (A,M) untreated control, (B,N) CaNCR13, 3.125 µM, (C,O) CaNCR63, 3.125 µM, (D,P) CaNCR63_1-20, 3.125 µM, (E,Q) CaNCR63_15-34, 3.125 µM, (F,R) MsNCR443, 3.125 µM, (G,S) MsNCR463_16-35, 1.6 µM, (H,T) MsNCR463_17-30, 3.125 µM, (I,U) PsNCR349, 1.6 µM, (J,V) PsNCR349_26-50, 3.125 µM, (K,W) PsNCR349_31-50, 3.125 µM, (L,X) PsNCR352, 1.6 µM.

[2] = system: Escherichia coli (ATCC 8739); type: cell-based; settings: ATCC 8739, 3 h
How it was run: (§1)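 MBC read as lowest peptide concentration giving no viable bacteria; ~10^7 log-phase cells, PPB pH 7.4, 3 h treatment, 2-fold dilutions from 25 µM.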

[3] = system: Staphylococcus aureus (HNCMO112011); type: cell-based; settings: HNCMO112011, 3 h
How it was run: as §1

[4] = system: Pseudomonas aeruginosa (ATCC 27853); type: cell-based; settings: ATCC 27853, 3 h
How it was run: as §1

[5] = system: Salmonella enterica (ATCC 13076); type: cell-based; settings: ATCC 13076, 3 h
How it was run: as §1

[6] = system: E. coli, S. enteritidis, P. aeruginosa, L. monocytogenes, S. aureus, E. faecalis, K. pneumoniae and A. baumannii; experiment: Antimicrobial activity assay, spectrum over the eight tested pathogenic bacteria; type: cell-based; settings: 3 h treatment of ~10^7 log phase bacteria, peptides 25 to 0.8 µM; active = MBC ≤25 µM
How it was run: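 Log-phase bacteria (~10^7) treated 3 h with NCR peptides in potassium-phosphate buffer pH 7.4, two-fold dilutions from 25 µM to 0.8 µM. MBC is the lowest concentration completely eliminating viable bacteria. Strains: E. faecalis ATCC 29212, S. aureus HNCMO112011, L. monocytogenes ATCC 19111, P. aeruginosa ATCC 27853, E. coli ATCC 8739, S. enterica ATCC 13076, K. pneumoniae NCTC 13440, A. baumannii ATCC 17978.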

[7] = system: Candida albicans W01 strain; experiment: microbe, parasite or virus in culture; type: cell-based; settings: C. albicans W01, two-fold dilution series; lowest concentration completely eliminating viable C. albicans; read-out: MFC, minimal fungicidal concentration against C. albicans
From the text: The following pathogenic bacterial strains were used: The Gram-positive Enterococcus faecalis (ATCC 29212), Staphylococcus aureus (HNCMO112011), Listeria monocytogenes (ATCC 19111) and the Gram-negative Pseudomonas aeruginosa (ATCC 27853), Escherichia coli (ATCC 8739), Salmonella enterica (ATCC 13076), Klebsiella pneumoniae (NCTC 13440), Acinetobacter baumannii (ATCC 17978) obtained from the ATCC (United States) and NCTC (National Collection of Type Cultures–England). For the antifungal experiment the Candida albicans W01 strain ([Ördögh et al., 2014]) was used. Antimicrobial activities of peptides against ∼10^7 log phase bacteria were tested in Potassium-Phosphate Buffer (PPB, pH 7.4) as described by [Jenei et al. (2020)] while anti-Candida assays were done according to [Szerencsés et al. (2021)]. The two-fold dilution series of peptides ranged from 25 μM to 0.125 μM, while that of the antibiotics ampicillin (Merck) and miconazole (Duchefa Biochemie) from […] to 0.1 μM. The lowest concentration of the antimicrobial agents, which completely eliminated viable bacteria or C. albicans were considered as the minimal bactericidal concentration (MBC) and minimal fungicidal concentration (MFC).

[8] = system: Acinetobacter baumannii (ATCC 17978); experiment: microbe, parasite or virus in culture; type: cell-based; settings: ATCC 17978, 3 h, pH 7.4; read-out: MBC, minimal bactericidal concentration against A. baumannii
How it was run: as §1

[9] = system: Enterococcus faecalis (ATCC 29212); type: cell-based
How it was run: as §1

Compound	Aggregation of HindIII-digested λ DNA (DNA retained in loading wells) [1]	Morphology of A. baumannii cells by SEM (A. baumannii)	MBC Escherichia coli [2]	MBC Staphylococcus aureus [3]	MBC Pseudomonas aeruginosa [4]	MBC Salmonella enterica [5]	Antibacterial spectrum over the eight tested bacterial strains [6]	MFC [7]	MBC [8]	Ability to kill E. faecalis ([9]; 3 h, ~10^7 log phase bacteria, peptides ≤25 µM)	MBC Enterococcus faecalis ([9]; ATCC 29212, 3 h)
CC[C@H](C)[C@H](NC(=O)[C@H](CCCCN)NC(=O)[C@H](CO)NC(=O)[C@H](CCCNC(=N)N)NC(=O)[C@@H]1CCCN1C(=O)[C@@H](N)CS)C(=O)N[C@@H](CCCCN)C(=O)N[C@@H](CC(=O)O)C(=O)N[C@@H](CS)C(=O)N[C@H](C(=O)N[C@@H](CCCCN)C(=O)NCC(=O)N[C@@H](Cc1ccc(O)cc1)C(=O)N[C@@H](CS)C(=O)N[C@@H](CCCNC(=N)N)C(=O)N[C@@H](CS)C(=O)N[C@H](C(=O)N[C@@H](CCCNC(=N)N)C(=O)N[C@@H](CCCCN)C(=O)N[C@@H](CCCCN)C(N)=O)C(C)C)C(C)C [CaNCR63_15-34] (H-CPRSKIKDCVKGYCRCVRKK-NH2; N-terminus assumed)	DNA remained in the wells	rough cell surface, lysis and flattening of the cells; also recorded: Filament-like structures	–	–	–	–	–	–	–	–	–
CC[C@H](C)[C@H](NC(=O)[C@H](CS)NC(=O)[C@H](CO)NC(=O)[C@H](CCCNC(=N)N)NC(=O)[C@H](CO)NC(=O)[C@H](Cc1ccccc1)NC(=O)[C@@H]1CCCN1C(=O)[C@H](CC(C)C)NC(=O)[C@H](Cc1ccc(O)cc1)NC(=O)[C@H](C)N)C(=O)N[C@@H](CO)C(=O)N[C@@H](CC(=O)O)C(=O)N[C@@H](CCCCN)C(=O)N[C@@H](CC(=O)O)C(=O)N[C@@H](CS)C(=O)N1CCC[C@H]1C(=O)N[C@@H](CCC(N)=O)C(=O)N[C@H](C(=O)N[C@@H](CCCCN)C(=O)N[C@@H](CC(N)=O)C(=O)N[C@@H](Cc1ccccc1)C(=O)N[C@@H](CO)C(=O)N[C@@H](C)C(=O)N[C@@H](CCCNC(=N)N)C(=O)N[C@@H](CS)C(=O)N[C@@H](CCCNC(=N)N)C(=O)N[C@@H](CCCCN)C(=O)NCC(=O)N[C@@H](Cc1ccc(O)cc1)C(=O)N[C@@H](CS)C(=O)N[C@@H](CCC(N)=O)C(=O)N[C@@H](Cc1ccccc1)C(=O)N[C@@H](CCCNC(=N)N)C(=O)N[C@H](C(=O)N[C@H](C(=O)N[C@@H](CCCNC(=N)N)C(=O)O)C(C)C)C(C)C)C(C)C [NCR471] (H-AYLPFSRSCISDKDCPQVKNFSARCRKGYCQFRVVR-OH; N-terminus assumed)	–	–	25 µM (≈ 106 µg/mL)	12.5 µM (≈ 52.9 µg/mL)	3.125 µM (≈ 13.2 µg/mL)	25 µM (≈ 106 µg/mL)	effective against five or four strains	–	–	–	–
CSCC[C@H](NC(=O)[C@H](CC(N)=O)NC(=O)[C@H](Cc1ccccc1)NC(=O)[C@@H](NC(=O)[C@H](CC(C)C)NC(=O)[C@H](CCCCN)NC(=O)[C@H](CCCCN)NC(=O)[C@H](CCCCN)NC(=O)[C@H](CCCCN)NC(=O)[C@H](CCCCN)NC(=O)[C@H](CC(C)C)NC(=O)[C@H](CCCCN)NC(=O)[C@H](CCCCN)NC(=O)[C@H](CCCCN)NC(=O)[C@H](Cc1c[nH]cn1)NC(=O)[C@H](CCCCN)NC(=O)[C@H](CCC(N)=O)NC(=O)[C@@H](NC(=O)[C@H](CS)NC(=O)[C@H](Cc1ccc(O)cc1)NC(=O)[C@H](CS)NC(=O)[C@@H](NC(=O)[C@H](CCCCN)NC(=O)[C@H](Cc1c[nH]c2ccccc12)NC(=O)[C@@H](N)C(C)C)[C@@H](C)O)C(C)C)[C@@H](C)O)C(N)=O [PsNCR349_26-50] (H-VWKTCYCVQKHKKKLKKKKKLTFNM-NH2; N-terminus assumed)	DNA remained in the wells	Filament-like structures	–	–	–	–	–	3.125 µM (≈ 9.81 µg/mL)	3.125 µM (≈ 9.81 µg/mL)	–	–
FIDCETVADCPTHWAYIYVCEKNKCRYHFKSGRVRPDHQKNRHNRV-OH (cysteines drawn unpaired) [NCR520]	–	–	25 µM	25 µM	3.125 µM	–	effective against five or four strains	–	–	able to kill	25 µM
